Experiments:
Assay in all cases: relative viability (nuclei count vs DMSO), 5 days (fraction); higher = more cells survive
[1] = compound: CC1=CN2C(=O)C=C(N=C2C(=C1)C(C)NC3=CC=CC=C3)N4CCOCC4 [TGX 221] + Nc1ncn([C@H]2C[C@H](O)[C@@H](CO)O2)c(=O)n1 [Decitabine] (partner 2 µM)
Method in brief: (§1)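 After 5 days of treatment, lung cancer cells in 1536-well plates were fixed and stained in a single step (final 0.05% Triton X-100, 1% formaldehyde, 1 ug/ml Hoechst) and their nuclei counted on 4× images. Treatment had been applied by pin tool the day after seeding as one drug alone or as a fixed anchor-drug dose with five library-drug doses (not always all listed) in √10 steps. Relative viability is the nuclei count of treated wells divided by that of vehicle wells, and values are medians of duplicate plates.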

[2] = compound: C1=CC=C(C(=C1)C2=CC=C(C=C2)C3=CSC4=C3C(=C(C(=O)N4)C#N)O)O + Cc1nc(NC(=O)N2CCC[C@H]2C(N)=O)sc1-c1ccnc(C(C)(C)C(F)(F)F)c1 [Alpelisib] (partner 2 µM)
Method in brief: as §1

[3] = compound: O=C(CCCCCCNC(=O)c1cnc(N(c2ccccc2)c2ccccc2)nc1)NO [Ricolinostat] + CS(=O)(=O)N1CCN(Cc2cc3nc(-c4cccc5[nH]ncc45)nc(N4CCOCC4)c3s2)CC1 [Pictilisib] (partner 1 µM)
Method in brief: as §1

[4] = compound: O=C(CCCCCCNC(=O)c1cnc(N(c2ccccc2)c2ccccc2)nc1)NO [Ricolinostat] + N=C(N)NC(=N)NCCc1ccccc1 [Phenformin] (partner 250 µM)
Method in brief: as §1

Row | Cell Line | relative viability ([1]; first compound 0.08 µM) | relative viability ([1]; first compound 0.253 µM) | relative viability ([1]; first compound 0.8 µM) | relative viability ([1]; first compound 2.53 µM) | relative viability ([1]; first compound 8 µM) | relative viability ([2]; first compound 0.08 µM) | relative viability ([2]; first compound 0.253 µM) | relative viability ([2]; first compound 0.8 µM) | relative viability ([2]; first compound 2.53 µM) | relative viability ([2]; first compound 8 µM) | relative viability ([3]; first compound 0.08 µM) | relative viability ([3]; first compound 0.253 µM) | relative viability ([3]; first compound 0.8 µM) | relative viability ([3]; first compound 2.53 µM) | relative viability ([4]; first compound 0.08 µM) | relative viability ([4]; first compound 0.253 µM) | relative viability ([4]; first compound 0.8 µM) | relative viability ([4]; first compound 2.53 µM)
1 | LCLC-97TM1 | 0.206 | 0.22 | 0.233 | 0.228 | 0.225 | 0.251 | 0.346 | 0.265 | 0.225 | 0.173 | 0.205 | 0.181 | 0.168 | 0.141 | 0.314 | 0.417 | 0.45 | 0.204
2 | LC-2-ad | 0.765 | 0.793 | 0.822 | 0.826 | 0.742 | 0.803 | 0.943 | 1 | 1 | 0.965 | 0.4 | 0.546 | 0.433 | 0.236 | 0.47 | 0.621 | 0.5 | 0.44
3 | NCI-H2347 | 0.564 | 0.504 | 0.582 | 0.558 | 0.597 | 0.959 | 1.09 | 0.968 | 1.04 | 0.964 | 0.451 | 0.628 | 0.884 | 0.644 | 0.295 | 0.32 | 0.337 | 0.302
4 | NCI-H2009 | 0.384 | 0.339 | 0.352 | 0.471 | 0.327 | 1.11 | 1.09 | 1.14 | 1.11 | 1.09 | 0.498 | 0.829 | 0.757 | 0.85 | 0.455 | 0.46 | 0.446 | 0.43
5 | NCI-H650 | 0.326 | 0.301 | 0.318 | 0.343 | 0.343 | 1.1 | 1.36 | 0.961 | 1.11 | 1.22 |  | 0.766 | 0.77 | 0.506 | 0.373 | 0.454 | 0.397 | 0.281
6 | NCI-H460 | 0.488 | 0.442 | 0.489 | 0.453 | 0.401 |  | 0.67 | 0.596 | 0.588 | 0.387 | 0.332 | 0.393 | 0.308 | 0.269 | 0.389 | 0.512 | 0.494 | 0.476
7 | HOP-62 | 0.213 | 0.185 | 0.207 | 0.246 | 0.268 | 0.905 | 0.774 | 0.709 | 1.05 | 0.573 | 0.624 | 0.749 | 0.624 | 0.33 | 0.586 | 0.657 | 0.623 | 0.503
8 | NCI-H1975 | 0.542 | 0.386 | 0.385 | 0.362 | 0.39 | 0.508 | 0.694 | 0.542 | 0.721 | 0.485 | 0.283 | 0.309 |  | 0.231 | 0.377 | 0.413 | 0.396 | 0.401
